Earlier results as cited in patent US10967066B2, “Stapled acid-sensitive endosome disrupting alginates” (University of Pittsburgh—Of the Commonwealth System of …, priority 2015, dated 2021).

What was measured:
tumors = settings: mice

Q: Which “hydrogen peroxide accumulation and cell death in cancer cells” value (cancer cells) does the source give for CC(C)c1cc(C(=O)[O-])c(O)c(C(C)C)c1.CC(C)c1cc(C(=O)[O-])c(O)c(C(C)C)c1.[Cu+2] [Cu(II)DIPS, copper(II) (3,5-diisopropylsalicylate)2] here?
A: induce hydrogen peroxide accumulation due to the conversion of radical oxygen into hydrogen peroxide, with this accumulation of hydrogen peroxide leading to cell death in cancer cells

Q: What about the clearing tumors (tumors) of the same molecule?
A: effective in clearing tumors in mice
